Results from patent US6596730B1, “Phenyl urea and phenyl thiourea derivatives” (SmithKline Beecham p.l.c., priority 1999, dated 2003).
Where a name gives a salt, the structure may show the parent alone.

Experiments:
human orexin-1 receptor = target: T1, human orexin-1 receptor (Homo sapiens, UniProt O43613); assay: Determination of orexin-1 receptor antagonist activity (FLIPR calcium mobilisation, HEK293 cells, against 3.0 nM human orexin-A); assay type: cell-based; conditions: HEK293 cells expressing human orexin-1 receptor; Kb=IC50/(1+([3/EC50]); agonist 3.0 nM human orexin-A
T1 construct: expressed in transfected cells; host or cells: HEK293
T1 sequence (O43613 1-425): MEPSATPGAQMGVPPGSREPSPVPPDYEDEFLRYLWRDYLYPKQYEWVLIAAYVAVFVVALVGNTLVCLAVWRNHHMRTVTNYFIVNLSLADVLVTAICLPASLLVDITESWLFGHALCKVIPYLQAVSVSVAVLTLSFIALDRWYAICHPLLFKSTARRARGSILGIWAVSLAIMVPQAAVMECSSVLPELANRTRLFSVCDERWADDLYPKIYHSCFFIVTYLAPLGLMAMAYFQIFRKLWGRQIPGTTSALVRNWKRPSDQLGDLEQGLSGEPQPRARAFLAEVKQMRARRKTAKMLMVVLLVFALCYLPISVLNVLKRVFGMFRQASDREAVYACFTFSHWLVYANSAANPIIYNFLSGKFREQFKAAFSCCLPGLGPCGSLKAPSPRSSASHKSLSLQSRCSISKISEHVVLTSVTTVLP
Protocol: The orexin-1 receptor antagonist activity of the compounds of formula (I) was determined in accordance with the following experimental method.
HEK293 cells expressing the human orexin-1 receptor were grown in cell medium (MEM medium with Earl's salts) containing 2 mM L-Glutamine, 0.4 mg/mL G418 Sulfate from GIBCO BRL and 10% heat inactivated fetal calf serum from Gibco BRL. The cells were seeded at 20,000 cells/100 μl/well into 96-well black clear bottom sterile plates from Costar which had been pre-coated with 10 μg/well of poly-L-lysine from SIGMA. The seeded plates were incubated overnight at 37° C. in 5% CO2.
Agonists were prepared as 1 mM stocks in water:DMSO (1:1). […] Antagonist IC^50 values (the concentration of compound needed to inhibit 50% of the agonist response) were determined against 3.0 nM human orexin-A using 11×half log unit dilutions in Tyrode's buffer containing 10% DMSO and probenecid. On the day of assay 50 μl of cell medium containing probenecid (Sigma) and Fluo3AM (Texas Fluorescence Laboratories) was added (Quadra, Tomtec) to each well to give final concentrations of 2.5 mM and 4 μM, respectively. […] Cell plates were then transferred to the Fluorescent Imaging Plate Reader (FLIPR, Molecular Devices) instrument and maintained at 37° C. in humidified air. […] Agonists were added (by the FLIPR) after 20 sec (during continuous reading). […]

rat = assay: Rat sleep/EEG studies, central administration; assay type: in vivo; conditions: central administration at the onset of the normal sleep period
Description: Therefore antagonists of its receptor may be useful in the treatment of sleep disorders including insomnia.

freely-feeding rats = conditions: central administration, 4 hour time period; cited from earlier work

| Compound | Kb (human orexin-1 receptor) [nM] | effect on arousal / sleep (rat) | increase in food intake over control rats receiving vehicle (freely-feeding rats) |
| --- | --- | --- | --- |
| COc1ccc(NC(=O)Nc2cc(C)nc3cccnc23)cc1C(=O)NCC1CC1 [Example 2, N-Cyclopropylmethyl-2-methoxy-5-[3-(2-methyl-[1,5]-naphthyridin-4-yl)ureido]benzamide Hydrochloride] | < 31.6 |  |  |
| orexin-A: ligand for the orexin-1 receptor, agonist of the orexin receptors; 33-residue peptide, sequence given in the 1st table (QPLPDCCRQKTCSCRLYELLHGAGNHAAGILTL; Orexin-A; UniProt O43612 34-66, looked up) |  | dose-related increase in arousal | approximately four-fold |
